Experimental data published in PubChem BioAssay AID1626 (SRMLSC, 2009).

System: M. tuberculosis H37Rv growth inhibition
Assay: M. tuberculosis H37Rv growth inhibitors, H37Rv strain (AID 1626)
Details: for IC90: measured here: IC90 against H37Rv; for CC50: measured here: Vero cell cytotoxicity

SMILES | IC50 [µM] | IC90 [µM] | CC50 [µM]
O=C(Nc1nnc(-c2ccc(Cl)cc2)o1)c1ccccc1Br | 1.12 | 3.35 | > 40
CCOC(=O)N1CCN(CCC(=O)Nc2ccc(C)c(Br)c2)CC1 | 6.69 | 26.2 | –
COC(=O)c1ccc(NC(=O)CSC2=NCCN2)cc1 | – | > 100 | –
Cn1c(-c2ccccc2)cc2c3no[n+]([O-])c3ccc21 | < 0.195 | 0.445 | 2.6
CCOC(=O)Cc1csc(NC(=O)c2csc3c2CCCC3)n1 | 9.18 | 12.5 | > 40
COc1ccc(NC2=CC(c3ccc(OC)cc3)N(c3ccc(OC)cc3)C2=O)cc1 (stereo unspecified) | – | > 100 | > 40
C=C1C(=O)[C@@]23[C@H](O)C[C@@H]4C(C)(C)CC[C@H](O)[C@@]4(C)[C@@H]2CC[C@@H]1[C@H]3O | 8.62 | 14.6 | 5.78
COc1ccc(C(=O)C(CN2CCOCC2)c2ccccc2)cc1F (stereo unspecified) | 11.5 | 12.5 | 16.1
CC1CCN(C(=O)COC(=O)c2cc3ccccc3cc2O)CC1 | 0.634 | 2.51 | –
c1ccc(CN2CCC(Nc3nc(-c4cccs4)nc4ccccc34)CC2)cc1 | 4.78 | 6.93 | 17.5
CCCCOc1ccc(C(=O)N/C(=C/C=C/c2ccccc2)C(=O)N2CCOCC2)cc1 | 13.9 | > 100 | > 40
COc1ccc(OCC(O)Cn2c(=N)n(CCN3CCCCC3)c3ccccc32)cc1 (stereo unspecified) | 6.22 | 6.86 | > 40
Cc1cccc(N2CCN(C(=O)c3ccc(CNc4c(N5CCC(C)CC5)c(=O)c4=O)cc3)CC2C)c1 (stereo unspecified) | 15.8 | 22.2 | > 40
CSc1ccc(NC(=O)N2CC=C(n3c(=O)[nH]c4ccccc43)CC2)cc1 | – | – | > 40
CCOC(=O)C(C(=O)OCC)C1N=C(N)N=C2Oc3ccccc3N21 (stereo unspecified) | 17.1 | 36.7 | –
CC1(C)OC(=O)C(=Cc2ccc[nH]2)C(=O)O1 | < 0.195 | > 100 | –
O=C(Nc1nc2ccccc2[nH]1)c1cc2ccccc2o1 | 37.2 | > 100 | > 40
CC(C)NCC(O)Cn1c2c(c3ccccc31)CCc1c-2cnn1-c1ccccc1 (stereo unspecified) | 10.1 | 13.6 | 7.97
CCc1nc(N2CCCC(C)C2)c2oc3ccccc3c2n1 (stereo unspecified) | 17 | 23.8 | > 40
Cc1c(Cc2ccccc2)c(=O)n2c([nH]c3ccccc32)c1C#N | 3.04 | > 100 | 13
O=C(Nc1nnc(C2CC2)s1)c1ccccn1 | 2.75 | 3.68 | 15.6
Cc1nc(Nc2ccc(Cl)c(Cl)c2)sc1C(=O)Nc1ccccc1 | 14.4 | 38 | 20.9
O=C(Nc1ccc(C(F)(F)F)cc1)N1CCN(c2ccnc3cc(Cl)ccc23)CC1 | 8.62 | 15.4 | 8.22
O=C(C=C=Nc1ccccc1)C(=O)N=C=Cc1ccccc1 | 16.4 | 25 | 22.8
N#C/C(=C(/O)COC(=O)CCC1CCCCC1)c1nc2ccccc2[nH]1 | 20.2 | 25.1 | > 40
CNC(=O)C(=O)Nc1nc(C23CC4CC(CC(C4)C2)C3)cs1 | 62.7 | > 100 | –
c1ccc(CN2CCC(N=C3NN=C(c4ccc5c(c4)OCCO5)CS3)CC2)cc1 | 18.2 | 21.6 | > 40

SMILES | IC50 [µM] | IC90 [µM] | CC50 [µM]
CC1CC(C)(C)Nc2ccc(OC(=O)c3ccco3)cc21 (stereo unspecified) | 15.9 | 22.2 | > 40
O=C(Nc1nc(-c2ccccn2)cs1)c1cc(Cl)ccc1[N+](=O)[O-] | 0.87 | 2.24 | 2.24
Cc1ccc(-c2nnc3sc(CCc4ccccc4)nn23)cc1 | 1.63 | 6.83 | –
O=C1C2C3C=CC(C3)C2C(=O)N1c1ccc(-c2nc3ccccc3c(=O)o2)cc1 (stereo unspecified) | 9.33 | 23.1 | –
C=CCOc1ccc(C=Nc2ccc(OC)cc2)c(O)c1 | – | > 100 | –
O=C(/C=C/c1cccs1)Nc1cccc(NC(=O)/C=C/c2cccs2)n1 | 10.4 | > 100 | 28
CCOc1cc(/C=C2\SC(=N)N(c3nccs3)C2=O)ccc1OCCN1CCOCC1 | 0.393 | 1.02 | 19.1
Cc1ccc(OCCN2CCN(CC(O)Cn3c4ccccc4c4ccccc43)CC2)cc1 (stereo unspecified) | 9.21 | 11.4 | 21.5
CCOC(=O)c1cc(C)nc(Sc2ccc(C)cc2)c1C#N | 12.7 | > 100 | > 40
CCOCCOC(=O)COc1ccc2c(-c3ccccc3)cc(=O)oc2c1 | 1.28 | 4.32 | –
CCCc1ccc(-c2cc(C(=O)NC3=NCCS3)c3ccccc3n2)cc1 | – | > 100 | > 40
COc1ccc(NC(=O)c2ccc(-c3ccc([N+](=O)[O-])cc3)o2)cc1 | – | > 100 | –
COC(=O)CSc1nc(N)c(C#N)c(CC(C)C)c1C#N | 2.91 | 57.5 | –
Fc1ccc(-c2nnc(CSc3nnc(-c4cccs4)o3)o2)cc1 | – | > 100 | –
CC1CCN(c2ccc(C=O)o2)CC1 | 55.9 | > 100 | –
O=C(/C=C/c1ccccc1O)c1ccc(Cl)cc1 | 14.4 | 24.1 | 27
Cc1cccc(N=Nc2c(N)n[nH]c2-c2ccc(Cl)cc2)c1 | 59.1 | > 100 | –
CCN1CCN(Cc2ccc(NC(=O)c3ccc(C)c(NC(=O)c4c[nH]c5cc(C(F)(F)F)ccc5c4=O)c3)cc2C(F)(F)F)CC1 | 3.86 | 4.72 | 3.28
CCOc1ccc2ncc(S(=O)(=O)c3ccc(C)cc3)c(N3CCC4(CC3)OCCO4)c2c1 | 28.2 | > 100 | > 40
CC(C)Cn1c(N2CCN(C(=O)/C=C/c3ccccc3)CC2)nc2ccccc21 | 21.5 | 29.9 | –
CCC(=O)Nc1ccc2ccccc2c1 | 46.5 | > 100 | –
N=c1n(CCN2CCCCC2)c2ccccc2n1CC(=O)c1ccc(Cl)c(Cl)c1 | 8.28 | 10.5 | 19.8
Cc1ccc(C)c(SCC(=O)OC/C(O)=C(\C#N)c2nc3ccccc3[nH]2)c1 | 3.09 | 4.9 | > 40
CCOC(=O)C1=Nc2ccccc2C1=[N+]=[N-] | 0.906 | 1.23 | 36.7
Cc1cc(C)n(-c2nc(SCCN(C)C)c3c4c(sc3n2)CCCC4)n1 | 4.2 | 6.19 | 11.6
COC(=O)c1c(NC(=O)CC2SC(N)=NC2=O)sc2c1CCC(C(C)(C)C)C2 (stereo unspecified) | 16.4 | 24 | 35
Cc1cccc(-n2cc(CN(C)Cc3nccn3C)c(-c3cccc(F)c3)n2)c1 | 7.43 | 12.1 | > 40

SMILES | IC50 [µM] | IC90 [µM] | CC50 [µM]
O=[N+]([O-])c1cc(O)c2ncccc2c1 | 2.71 | 3.39 | 7.36
O=C(Nc1ccc(F)cc1F)Nc1csc2ccccc12 | < 0.391 | 52.7 | > 40
O=C(Oc1c(Cl)cc(Cl)c2cccnc12)c1ccco1 | 1.28 | 1.78 | 10
Cn1c(-c2c(N)n(CCc3ccccc3)c3nc4ccccc4nc23)nc2ccccc21 | 1.83 | 28.4 | 35.1
O=C(/C=C/Sc1ccccc1)c1ccc(Cl)cc1 | 6.43 | 11.2 | 26.1
Cn1c(NCc2ccccc2)nc2c1c(=O)n(Cc1ccc(Br)cc1)c(=O)n2C | 13.8 | > 100 | > 40
CCCn1c(NC(=O)c2ccco2)nc2ccccc21 | 5.87 | 18.6 | > 40
CCc1ccc(/C=c2\s/c(=C\C(=O)C(C)(C)C)[nH]c2=O)cc1 | 2.55 | 3.56 | > 40
Cc1ccc(-n2nnnc2SC(C)C(=O)Nc2ccc(Cl)cn2)cc1 (stereo unspecified) | 16.5 | 29.1 | 26.7
CC(C)(C)C(=O)/C=C/Nc1ccccc1O | 2.55 | 3.93 | > 40
CCCC(=O)N1CCN(c2ccc(NC(=O)c3ccc([N+](=O)[O-])o3)cc2Cl)CC1 | < 0.195 | < 0.195 | 1.8
Nc1c(C(=O)NC2CCCCC2)nsc1C(=O)OCC(=O)NC1CCCCC1 | 2.04 | > 100 | > 40
CC(C)(C)c1cc(NCCCn2ccnc2)n2ncc(-c3ccccc3)c2n1 | 1.76 | 2.89 | 15.9
CN(C)CCNC(=O)/C(=C/c1ccc(-c2ccc(Cl)cc2Cl)o1)NC(=O)c1ccccc1 | 10.5 | 11.6 | 10.2
O=C(COC(=O)/C=C/c1cccs1)Nc1ccc2ccccc2c1 | 90.8 | > 100 | –
COc1cccc2sc(Nc3nnc(-c4ccc(F)cc4)o3)nc12 | 9.19 | 11.8 | 16
C=CCn1c(SCc2ccc(C(=O)Nc3nccs3)cc2)nnc1-c1ccc(C)c(Cl)c1 | 6.82 | 17.6 | 32.9
O=C(CSc1nc2ccccc2o1)Nc1nc(-c2ccccc2)cs1 | 28.1 | > 100 | –
CCOC(=O)CSc1ncnc2c1cnn2-c1ccc(Cl)cc1 | 1.03 | > 100 | –
Cc1nc(SCC(=O)Nc2ccc(OCc3ccccc3)cc2)n[nH]1 | 0.406 | > 100 | –
Cc1ccc(CN=c2c([N+](=O)[O-])nn(-c3cccc(Cl)c3)n2O)cc1 | 2.8 | 2.94 | –
C/C(=C\C(=O)c1ccncc1)Nc1ccccc1O | < 0.195 | 28.2 | > 40
c1ccc(-c2nc(NCCCn3ccnc3)c3ccccc3n2)cc1 | 5.87 | 8.05 | > 40
COc1ccc(-c2oc3ncn(Cc4ccco4)c(=N)c3c2-c2ccc(OC)cc2)cc1 | 8.35 | 13.9 | 23.7
COc1cc(NS(=O)(=O)c2ccc(N)cc2)ncn1 | 6.02 | 12.2 | –
